Test results reported in patent US20260092086A1, “ANTIMICROBIAL LASSO PEPTIDES” (priority 2022, published 2026).
In brackets after ≈: the same amount, converted by molar mass. Several values for one entry are separate records, joined by “and”; a condition that tells them apart may be missing. Equal values may be shown once. Where a SMILES comes first, the peptide text is derived from it.

Columns and labels:
[1] = test system: Enterobacter nimipressuralis DSM 18955; format: cell-based
Enterobacter strains = test: Spot-on-lawn assay, CDC & FDA Antibiotic Resistance Isolate Bank panels; format: cell-based; details: three of the four Enterobacter strains of the CRE/BIT panels, M63 agar
Source text: (§1) FIG. 42. Spot-on-lawn assays of tested clinical isolates treated with cloacaenodin in M63 agar. From the initial concentration shown to the left of the curved arrow and in the direction of the curved arrow, two-fold serial dilutions of cloacaenodin were spotted. The straight arrows point to the last visible spot on the plate which corresponds to the recorded minimal inhibitory concentration (MIC). Spot 8 is pure water in all plates. AR Bank #0132, AR Bank #0136, AR Bank #0144, and AR Bank #0154 are from the CRE panel. AR Bank #0001 and AR Bank #0002 are from the BIT panel.
(§2) Two panels from the CDC & FDA Antibiotic Resistance Isolate Bank were used: the Enterobacterales Carbapenemase Diversity (CRE) panel and the Enterobacterales Carbapenem Breakpoint (BIT) panel.^81 These panels represent strains with resistance to carbapenems, which are last resort antibiotics: there is an urgent need of new treatments of infections with these strains.
(§3) We tested 6 strains: 4 Enterobacter strains, 1 Kluyvera strain, and 1 Escherichia coli strain.

Kluyvera strain = test: as above; format: cell-based; details: carbapenem-resistant CRE/BIT panel strain, M63 agar
Source text: as §1, §2, §3

[2] = Stability of NMR sample kept at 4° C., LC-MS before and after acquisition; format: physicochemical; details: 95:5 H2O:D2O
Experimental: The structure of cloacaenodin in water was determined using two-dimensional (2D) nuclear magnetic resonance (NMR) analysis, a technique that has been successfully used to show the threaded shape of lasso peptides.^51 The possibility of cloacaenodin unthreading during the NMR acquisition was addressed by keeping the sample at 4° C. throughout acquisition. […] As an additional control, one-dimensional (1D) NMR spectra were acquired in between each 2D NMR spectrum acquisition to ensure stability of the sample (FIG. 12).
NMR studies were performed at the Princeton University Department of Chemistry NMR Facilities using a Bruker Avance III HD 800 MHz NMR spectrometer. Purified cloacaenodin was prepared at a concentration of 6.7 mg/mL (2.6 mM) in 95:5 H2O:D2O. The NMR spectra were acquired at 4° C. to minimize any cloacaenodin unthreading. A ^1H-^1H TOCSY spectrum at a mixing time of 80 ms was acquired, as well as 1H-1H NOESY spectra at 150 ms and 300 ms. Water suppression was used in the collection of all NMR data. To verify that the lasso peptide was not undergoing unthreading, 1D 1H NMR data were collected in between each 2D NMR acquisition and analyzed to see that the 1D spectra stayed consistent. […]

Elastase = target: T1, Elastase (Sus scrofa, UniProt P00772); test: Protease digestion, elastase; format: in vitro ADME; details: 50 μM peptide, 25° C., about 1 hour, LC-MS
T1 construct: purchased Promega
Experimental: Elastase (Promega) was resuspended in 50 mM Tris pH 9.0. The enzyme was added to 50 μM peptide samples at a final enzyme concentration of about 0.04 mg/mL in a buffer of 50 mM Tris, pH 9. The reactions were then allowed to incubate at 25° C. for about 1 hour before quenching with 1% formic acid. An aliquot was then injected into LC-MS for analysis.

[3] = 18 μM in pure water, 37° C., 72 hours (3 days)
Experimental: A 200 μL sample of purified ˜18 μM cloacaenodin in water was incubated at 37° C. for 72 hours. 30 μL of the sample was injected on LC-MS at 24-hour increments.

[4] = Heating assay at 95° C., LC-MS; format: physicochemical; details: 1.5 hours
Experimental: The threaded nature of the collected cloacaenodin sample was next sought to be verified, because the threaded structure is crucial to the bioactivity of lasso peptides.^50 Heat treatment of certain lasso peptides leads to their unthreading: the unthreaded species often elutes differently than the threaded peptide.^48,49 We performed a heating assay at 95° C. and noticed that after 1.5 hours ˜5% of cloacaenodin eluted at around 12.4 min instead of 10.5 min (FIGS. 7A-7B). Upon treatment with carboxypeptidase^48,49, this later eluting peak was eliminated, and various earlier-eluting peaks consistent with C-terminal truncations of 6, 9, or 10 amino acids were then observed. These truncations were not observed for the unheated cloacaenodin sample when treated with carboxypeptidase (FIGS. 7A-8B). […] This unthreaded variant in the extract may have formed because of thermal unthreading during expression and purification, exposure to organic solvents during purification, or both. To ensure that the sample we collected from the HPLC remained stable, we froze the sample immediately upon collection until lyophilization, such that the peptide was minimally kept in solution.

trypsin = target: T2, trypsin (Sus scrofa, UniProt P00761); test: Protease digestion, trypsin; format: in vitro ADME; details: 50 μM peptide, room temperature, 30 minutes to 1 hour, LC-MS
T2 construct: purchased Promega
Experimental: Sequencing grade trypsin (Promega) was added to 50 μM peptide samples at a 1:100 trypsin: peptide weight ratio in a buffer of 50 mM ammonium bicarbonate. The reaction was allowed to proceed at room temperature for 30 minutes to 1 hour and then quenched by 1% formic acid. An aliquot was then injected onto LC-MS for analysis.

B. subtilis 168 = test: Spot-on-lawn assay in M63 agar; format: cell-based, Bacillus subtilis; details: purified cloacaenodin in water
Experimental: Cloacaenodin was evaluated against several common laboratory strains as well as commercially acquired strains using a spot-on-lawn assay.^45 Strains were streaked out onto LB agar plates and incubated overnight at their recommended temperatures. A single colony was then used to inoculate an overnight culture in 5 mL of LB broth. After shaking at 250 rpm at the recommended temperature for each strain, 50 μL of the overnight culture was used to inoculate 5 mL of LB broth (volume ratio 1:100). These cultures were grown for a few hours until they reached the exponential phase (OD600˜0.4-0.6) before being added to 10 mL of soft M63 agar at a final cell density of 10^7 CFUs/mL, or 10^8 CFUs total in 10 mL. The M63 soft agar was composed of 2 g/L of (NH4)2SO4 (EMD MilliporeSigma), 13.6 g/L of KH2PO4 (Fisher), 40 mg/L of each of the 20 common amino acids, 0.2% glucose (Sigma), 0.00005% w/v thiamine hydrochloride (Sigma), and 0.65% w/v bacteriological-grade agar (Apex Bioresearch). […] Upon solidification, 10 μL of purified cloacaenodin in water at two-fold dilutions were then spotted onto the agar and allowed to dry. The plates were incubated overnight at the strains' recommended temperatures and analyzed the next morning for activity. The MIC is defined as the last dilution where a spot was visible.

[5] = listed as Threaded cloacaenodin
[6] = listed as threaded cloacaenodin

T2 sequence (P00761 9-231): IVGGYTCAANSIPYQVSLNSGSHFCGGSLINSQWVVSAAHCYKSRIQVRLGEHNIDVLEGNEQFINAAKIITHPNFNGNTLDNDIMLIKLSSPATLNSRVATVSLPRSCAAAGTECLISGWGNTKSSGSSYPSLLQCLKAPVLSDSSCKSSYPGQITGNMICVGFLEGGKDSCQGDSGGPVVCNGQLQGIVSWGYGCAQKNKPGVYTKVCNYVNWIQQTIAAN
T1 sequence (P00772 27-266): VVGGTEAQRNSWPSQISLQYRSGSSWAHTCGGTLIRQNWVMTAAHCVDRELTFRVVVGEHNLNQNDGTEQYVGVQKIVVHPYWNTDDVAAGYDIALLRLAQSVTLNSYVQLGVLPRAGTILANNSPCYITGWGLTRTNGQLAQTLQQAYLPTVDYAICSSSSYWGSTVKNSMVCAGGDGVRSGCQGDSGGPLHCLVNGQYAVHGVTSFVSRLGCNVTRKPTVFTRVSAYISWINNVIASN

CC[C@H](C)[C@@H]1NC(=O)[C@H](CCCNC(=N)N)NC(=O)[C@H](CC(=O)O)NC(=O)[C@H](C(C)C)NC(=O)[C@H](CO)NC(=O)[C@H](Cc2c[nH]cn2)NC(=O)CNC(=O)CC[C@@H](C(=O)N[C@@H](Cc2ccc(O)cc2)C(=O)N[C@@H](Cc2ccccc2)C(=O)NCC(=O)N2CCC[C@H]2C(=O)N2CCC[C@H]2C(=O)NCC(=O)N[C@@H](CC(C)C)C(=O)N2CCC[C@H]2C(=O)NCC(=O)N2CCC[C@H]2C(=O)N[C@H](C(=O)N[C@@H](CC(C)C)C(=O)N[C@@H](Cc2ccccc2)C(=O)N[C@@H](Cc2ccc(O)cc2)C(=O)N[C@@H](CO)C(=O)O)C(C)C)NC(=O)[C@@H]2CCCN2C1=O [cloacaenodin] (HELM PEPTIDE1{G.H.S.V.D.R.I.P.E.Y.F.G.P.P.G.L.P.G.P.V.L.F.Y.S}$PEPTIDE1,PEPTIDE1,1:R1-9:R3$$$V2.0; C-terminus assumed)
MIC in M63 media [1]: 0.94 µM (≈ 2.43 µg/mL) | antimicrobial activity (Enterobacter strains): single digit micromolar | antimicrobial activity (Kluyvera strain): single digit micromolar | threaded state after NMR acquisition [2]: remained threaded | proteolysis by elastase (Elastase; [5]): resistant to elastase digestion | proteolysis by elastase (Elastase; [6]): remained resistant to proteolysis | fraction remaining threaded (relative peak area on LC-MS) [3]: ~83% and > 80% | fraction eluting as later (unthreaded) peak after heating [4]: ~5% | proteolysis by trypsin (trypsin; [5]): resistant to trypsin digestion | proteolysis by trypsin (trypsin; [6]): remained resistant to proteolysis | antimicrobial activity (zones of inhibition) (B. subtilis 168): no observed activity
